Patent US20220356174A1, “PYRIDIN-2-ONE COMPOUNDS USEFUL AS SMARCA2 ANTAGONISTS” (Epizyme, Inc., priority 2018, published 2022)
Like-named read-outs stand apart in the source and are kept apart here.

Tests used:
[1] = target: T1, FL-SMARCA2 (full-length human SMARCA2 isoform 1) (Homo sapiens, UniProt P51531); test: SMARCA2 ATPase activity assay (ADP-Glo, chicken mononucleosome substrate); format: biochemical; details: ATPase assay, enzyme 5 nM, ATP 250 uM, chicken mononucleosome 10 nM, 30 min preincubation
T1 construct: FLAG tag (YKDDDDK) (C); made in house; host or cells: Sf21 insect cells (baculovirus, pFastBacI)

H358 cells = test: High-throughput proliferation (HTP) assay for H358 cells (CellTiter-Glo, 7 days); format: cell-based; details: Homo sapiens, NCI-H358, 168 h, read-out: H358 SMARCA2 IC50
Procedure: Thawing vials: H358 cells (ATCC #CRL-5807™) were thawed from a cryovial containing approximately 1.6×10^6 cells frozen in 70% RPMI 1640 medium, 20% HI-FBS and 10% DMSO. Cells were thawed by submerging the bottom half of the vial in a 37° C. water bath and gently flicked until almost thawed. The cells were removed and transferred into a 15 mL conical tube containing 9 mL RPMI 1640 medium+10% HI-FBS and then centrifuged 200×g for 4 min before drawing off the media without disturbing the cell pellet to remove the DMSO. The cells were resuspended again in 15 mL of RPMI 1640 fresh complete media+10% HI-FBS and grown up in a T75 flask at 37° C. with 5% CO2 Incubator. Viability was measured to obtain baseline.
Preparing frozen stock vials: Cell density was counted in a stock flask. The culture was transferred to a 50 mL conical tube and spun down to remove medium, and then resuspend at 1-2×10^6 cells/mL in complete medium containing 10% DMSO and transferred to a 1 mL per vial.
Routine subculture: Sub-confluent cultures (70-80%) were split every 4 days, seeding out at 1-2×10^6 cells/75 cm^2.
Day 0: Assay ready plates were prepared by dispensing 50 nL of compound stock or DMSO in the appropriate wells of 384-well white CulturPlates using Echo550. Using the Multiflo, H358 cells at 50 μL/well were plated in RPMI 1640 complete media+10% HI-FBS+1% pen/strep at cell density determined [20,000 cells/mL (1,000 cells/well)] from growth curve. Treated cells were inclubated at 37° C., 5% CO2, relative humidity >90% for 7 days. CellTiter-Glo (CTG) ATP detection reagent was prepared according to manufacturer's specifications. Cell assay plates were removed from incubator and bring to room temperature (RT).
Using the MultiDrop liquid handler, 30 μL of CTG were added per well. Plates were placed on the multidrop dispenser shake for 5 seconds at RT. Plates were incubated for 30 minutes in the dark at RT before measuring luminescence using the Envison2104.
Data analysis: Using the DMSO control wells as the 0% inhibition (high signal) control and the 10 uM Doxorubicin control wells as the 100% inhibition (low signal) control, percent inhibition EC50s (inflection point) and IC50s were calculated for the compound dose responses.

A549 cells = test: High-throughput proliferation (HTP) assay for A549 cells (CellTiter-Glo, 7 days); format: cell-based; details: Homo sapiens, 168 h, read-out: A549 SMARCA2 IC50
Outline: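 Seven-day growth of A549 (62.5 cells/well, F12K with 10% HI-FBS, 37° C.) with compound, read by CellTiter-Glo ATP luminescence. Percent inhibition scaled between DMSO wells and 10 μM Doxorubicin wells, then fitted for EC50 and IC50.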

FL-SMARCA4 = FL-SMARCA4 (Homo sapiens, UniProt P51532); test: SMARCA4 ATPase activity assay (ADP-Glo, chicken mononucleosome substrate)
Procedure: Substrates. Chicken erythrocyte mononucleosomes were prepared from fresh chicken blood collected into anticoagulant and filtered through cheesecloth. The filtered chicken blood was diluted in buffer A (10 mM Tris-HCl, pH 7.4, 10 mM NaCl, 3 mM MgCl2) and centrifuged at 500 g for 15 minutes to collect the erythrocytes. Erythrocyte nuclei were harvested by resuspending the pellets in buffer A containing 0.3% NP-40 detergent. The mixture was stirred with a magnetic bar for 10 mins and centrifuged at 4000 g for 10 minutes. Resuspension, stirring and centrifugation was repeated twice more before the final nuclei pellet was resuspended in buffer A+0.3% NP-40 and stored at −80° C. until purification. For nucleosome purification, nuclei aliquots were rapidly thawed and washed five times with buffer B (10 mM Tris-HCl, pH 7.4, 1 mM CaCl2), 1 mM PMSF) and collected by centrifugation at 2800 g for 10 minutes. Pellets were resuspended in buffer B and treated with 100 U/mL micrococcal nuclease for 40 minutes at 37° C. The reaction was terminated by the addition of 2 mM EDTA and was centrifuged at 2800 g for 10 minutes. The nuclei were then lysed by resuspending the pellet in 1 mM EDTA and 1 mM PMSF and passing the mixture through a 22G needle 4 to 5 times. The solution was then centrifuged at 15,000 g for 20 minutes and the supernatant was collected. The remaining pellet was lysed through the syringe twice more and the supernatants were pooled after centrifugation. The pooled supernatants were further purified by size exclusion chromatography (GE Sephacryl S300 HR 50/100) in buffer C (10 mM HEPES, pH 7.5, 10 mM KCl, 1 mM EDTA, 1 mM PMSF, 10% glycerol). Fractions were analyzed by agarose gel electrophoresis and SDS-PAGE and fractions containing mononucleosomes were pooled and stored at −80° C.
The SMARCA2 or SMARCA4 ATPase assays were identical. The SMARCA2 or SMARCA4 ATPase assays were performed in a buffer consisting of 20 mM Bicine (pH 7.5), 10 mM KCl, 1 mM MgCl2, 1 mM TCEP, 0.005% BSG, and 0.002% Tween 20, prepared on the day of use. Compounds in 100% DMSO were 3-fold serially diluted to produce a 10 point curve for IC50 determination and 0.2 uL were transferred into polypropylene 384-well V-bottom plates (Greiner) using an Echo liquid handler (Labcyte). DMSO (0.2 uL) was added to Columns 11, 12, 23, 24, rows A-H for the maximum signal control and 0.2 uL doxorubicin, a known DNA intercalator, was added to columns 11, 12, 23, 24, rows I-P for the minimum signal control. The SMARCA2 or SMARCA4 enzyme (10 uL) was added to the compounds and allowed to incubate with the compounds for 30 min at room temperature. The SMARCA2 or SMARCA4 ATPase assay was initiated by the addition of 10 uL chicken mononucleosome and ATP mixture (final volume=20 uL). The final concentrations of the assay components were as follows: SMARCA2 or SMARCA4 was 5 nM, ATP was 250 uM, chicken mononucleosome was 10 nM, doxorubicin in the minimum signal control wells was 50 uM, and the DMSO concentration was 1%. 5 uL of the reaction mixture was transferred from the 384-well polypropylene plate to a white opaque polystyrene 384-well plate. At 60 minutes, the assays were terminated by the addition of 5 uL ADP-Glo™ Reagent (Promega). After 40 minutes, the luciferase reaction was initiated by the addition of 10 uL of Kinase Detection Reagent (Promega) and incubated for 1 hour. The ADP product generated from the SMARCA2 or SMARCA4 ATPase reaction was determined via luminescence intensity.

[2] = Table 3d.1, read-out: FL-SMARCA2 IC>50
[3] = FL-SMARCA4 IC>50, Table 3c.2, ATPase assay, enzyme 5 nM, ATP 250 uM, chicken mononucleosome 10 nM, 30 min preincubation

T1 sequence (P51531 with tags, fused parts or gaps): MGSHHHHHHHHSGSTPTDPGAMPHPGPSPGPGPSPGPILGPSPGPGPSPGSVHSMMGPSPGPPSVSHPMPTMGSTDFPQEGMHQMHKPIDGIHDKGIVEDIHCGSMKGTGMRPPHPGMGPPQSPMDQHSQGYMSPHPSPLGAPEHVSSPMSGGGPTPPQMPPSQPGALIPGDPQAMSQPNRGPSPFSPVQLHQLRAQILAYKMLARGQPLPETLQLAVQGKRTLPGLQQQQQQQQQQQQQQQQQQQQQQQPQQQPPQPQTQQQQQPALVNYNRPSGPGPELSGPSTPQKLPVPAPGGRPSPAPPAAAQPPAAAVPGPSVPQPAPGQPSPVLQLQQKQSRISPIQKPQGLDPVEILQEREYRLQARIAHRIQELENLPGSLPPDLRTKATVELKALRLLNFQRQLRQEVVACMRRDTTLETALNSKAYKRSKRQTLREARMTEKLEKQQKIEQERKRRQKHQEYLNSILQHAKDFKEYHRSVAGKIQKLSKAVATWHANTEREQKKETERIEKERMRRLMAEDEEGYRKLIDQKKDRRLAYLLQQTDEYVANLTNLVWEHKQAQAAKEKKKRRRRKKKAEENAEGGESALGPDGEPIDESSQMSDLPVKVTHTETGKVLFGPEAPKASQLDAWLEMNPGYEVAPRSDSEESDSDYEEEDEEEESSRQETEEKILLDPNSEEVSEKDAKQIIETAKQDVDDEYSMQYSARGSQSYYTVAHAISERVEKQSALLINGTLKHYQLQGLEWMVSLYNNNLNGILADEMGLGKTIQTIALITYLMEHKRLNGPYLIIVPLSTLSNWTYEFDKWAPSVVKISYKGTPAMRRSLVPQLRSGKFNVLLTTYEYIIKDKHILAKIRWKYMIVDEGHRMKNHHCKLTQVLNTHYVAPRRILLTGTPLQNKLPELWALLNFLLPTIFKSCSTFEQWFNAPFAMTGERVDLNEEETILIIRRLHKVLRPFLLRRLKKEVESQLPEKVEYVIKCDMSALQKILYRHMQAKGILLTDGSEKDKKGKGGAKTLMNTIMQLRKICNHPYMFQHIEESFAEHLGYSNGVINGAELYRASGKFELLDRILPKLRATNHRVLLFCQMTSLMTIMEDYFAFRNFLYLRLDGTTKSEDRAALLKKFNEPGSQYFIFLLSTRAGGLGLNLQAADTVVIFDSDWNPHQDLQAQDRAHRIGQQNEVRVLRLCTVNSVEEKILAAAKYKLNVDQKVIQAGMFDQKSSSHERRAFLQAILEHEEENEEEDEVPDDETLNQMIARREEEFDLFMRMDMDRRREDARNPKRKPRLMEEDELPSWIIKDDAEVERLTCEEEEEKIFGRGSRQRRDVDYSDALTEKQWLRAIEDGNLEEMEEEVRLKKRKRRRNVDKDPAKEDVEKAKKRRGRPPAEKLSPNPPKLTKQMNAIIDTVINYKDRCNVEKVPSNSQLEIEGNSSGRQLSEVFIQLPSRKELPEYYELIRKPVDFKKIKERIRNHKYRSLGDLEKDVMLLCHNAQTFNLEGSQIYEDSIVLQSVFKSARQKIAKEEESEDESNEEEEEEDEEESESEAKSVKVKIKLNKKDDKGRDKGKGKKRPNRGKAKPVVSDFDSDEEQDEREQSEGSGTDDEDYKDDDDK
Sequence of FL-SMARCA4 (P51532 whole entry): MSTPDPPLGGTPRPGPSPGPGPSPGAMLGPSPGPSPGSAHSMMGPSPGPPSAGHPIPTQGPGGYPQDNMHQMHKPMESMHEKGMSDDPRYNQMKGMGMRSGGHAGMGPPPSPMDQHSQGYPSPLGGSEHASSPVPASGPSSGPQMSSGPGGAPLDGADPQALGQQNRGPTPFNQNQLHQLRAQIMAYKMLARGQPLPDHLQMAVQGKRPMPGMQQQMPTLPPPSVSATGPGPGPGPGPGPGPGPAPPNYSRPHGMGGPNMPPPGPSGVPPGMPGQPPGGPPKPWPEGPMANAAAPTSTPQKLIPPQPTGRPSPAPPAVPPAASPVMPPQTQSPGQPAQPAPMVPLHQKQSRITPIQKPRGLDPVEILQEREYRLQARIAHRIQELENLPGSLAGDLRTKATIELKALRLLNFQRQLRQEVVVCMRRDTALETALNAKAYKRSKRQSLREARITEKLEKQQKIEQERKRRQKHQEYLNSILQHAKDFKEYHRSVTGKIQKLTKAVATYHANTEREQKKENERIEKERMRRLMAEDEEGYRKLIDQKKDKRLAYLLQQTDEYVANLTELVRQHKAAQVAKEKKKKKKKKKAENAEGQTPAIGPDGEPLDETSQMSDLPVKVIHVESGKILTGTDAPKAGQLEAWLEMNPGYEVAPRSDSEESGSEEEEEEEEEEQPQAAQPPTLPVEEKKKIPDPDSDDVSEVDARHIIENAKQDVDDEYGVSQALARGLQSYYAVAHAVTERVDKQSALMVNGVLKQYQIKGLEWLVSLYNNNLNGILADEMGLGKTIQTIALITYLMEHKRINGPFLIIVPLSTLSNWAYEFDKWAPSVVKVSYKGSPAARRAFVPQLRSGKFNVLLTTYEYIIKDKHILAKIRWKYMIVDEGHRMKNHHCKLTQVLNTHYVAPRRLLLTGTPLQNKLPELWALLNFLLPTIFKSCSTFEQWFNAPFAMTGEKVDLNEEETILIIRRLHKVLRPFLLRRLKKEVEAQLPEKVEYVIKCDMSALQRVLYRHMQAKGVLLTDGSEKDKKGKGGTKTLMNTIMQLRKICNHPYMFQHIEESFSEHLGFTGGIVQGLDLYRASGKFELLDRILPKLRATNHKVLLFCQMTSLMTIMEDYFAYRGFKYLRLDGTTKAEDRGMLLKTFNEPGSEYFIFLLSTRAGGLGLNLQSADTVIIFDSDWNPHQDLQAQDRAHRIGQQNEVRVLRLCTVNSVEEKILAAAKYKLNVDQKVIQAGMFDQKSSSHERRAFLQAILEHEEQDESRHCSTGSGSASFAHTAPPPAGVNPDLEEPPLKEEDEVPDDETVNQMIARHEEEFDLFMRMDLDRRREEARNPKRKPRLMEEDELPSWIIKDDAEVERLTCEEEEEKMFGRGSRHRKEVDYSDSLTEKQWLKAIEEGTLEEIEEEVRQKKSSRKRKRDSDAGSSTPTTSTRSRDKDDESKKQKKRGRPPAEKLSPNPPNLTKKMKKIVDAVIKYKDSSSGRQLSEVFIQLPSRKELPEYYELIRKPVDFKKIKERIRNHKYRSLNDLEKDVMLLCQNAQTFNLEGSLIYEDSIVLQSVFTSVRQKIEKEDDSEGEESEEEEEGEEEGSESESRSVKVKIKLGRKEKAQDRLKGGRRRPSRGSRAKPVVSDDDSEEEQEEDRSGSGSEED

| Structure (SMILES) | IC50 [1, 2] [nM] | IC50 (H358 cells) [nM] | IC50 (A549 cells) [nM] | IC50 (FL-SMARCA4; FL-SMARCA4 IC50) [nM] | IC50 ([1]; Table 3c.1) [nM] | IC50 (FL-SMARCA4; [3]) [nM] |
| --- | --- | --- | --- | --- | --- | --- |
| CN(C)C(=O)C#Cc1cc(C(=O)Nc2cc(F)c(=O)n(CC(F)F)c2)sc1Cl [Compound 71d] | 536 | 4090 | 2380 | 1260 | – | – |
| O=C(Nc1ccc(=O)n(CC(F)F)c1)c1cc(Cl)c(C(F)(F)F)s1 [Compound 72c] | – | > 10000 | 4500 | – | 210 | 1550 |
| CNC(=O)C#Cc1cc(C(=O)Nc2cc(F)c(=O)n(CC(F)F)c2)sc1Cl [Compound 72d] | 481 | > 10000 | 5760 | 1310 | – | – |
| O=C(Nc1cc(F)c(=O)n(CC(F)F)c1)c1cc(C#CC2COC2)cs1 [Compound 73c] | – | > 10000 | 6010 | – | 847 | 2930 |
| O=C(Nc1cc(F)c(=O)n(CC(F)F)c1)c1cc(C#C[C@H]2C[C@H](O)C2)c(Cl)s1 [Compound 73d] | 10.9 | > 10000 | 1810 | 32.7 | – | – |
| CN(C)C(=O)c1cccc(C#Cc2cc(C(=O)Nc3cc(F)c(=O)n(CC(F)F)c3)sc2Cl)c1 [Compound 74c] | – | > 10000 | 3930 | – | 67.5 | 245 |
| O=C(Nc1cc(F)c(=O)n(CC(F)F)c1)c1cc(C#CC(F)(F)F)c(Cl)s1 [Compound 74d] | 462 | 2440 | 1650 | 1010 | – | – |
| CC(=O)Nc1cccc(C#Cc2cc(C(=O)Nc3cc(F)c(=O)n(CC(F)F)c3)sc2Cl)c1 [Compound 75c] | – | > 10000 | 1780 | – | 20 | 54.5 |
| Cc1cc(NC(=O)c2cc(C#N)c(C(F)(F)F)s2)cn(CC(F)F)c1=O [Compound 75d] | 948 | > 10000 | > 10000 | 11300 | – | – |
| N#Cc1cc(C(=O)Nc2cc(C(F)F)c(=O)n(CC(F)F)c2)sc1C(F)(F)F [Compound 76d] | 1310 | > 10000 | > 10000 | 10200 | – | – |
| O=C(Nc1cc(F)c(=O)n(CC(F)F)c1)c1cc(C#CC2CCO2)c(Cl)s1 (stereo not drawn) [Compound 77d] | 160 | > 10000 | 7440 | 463 | – | – |
| O=C(Nc1cc(F)c(=O)n(CC(F)F)c1)c1cc(C#C[C@H]2CCOC2)c(Cl)s1 [Compound 78c] | – | > 10000 | 1570 | – | 98.3 | 256 |
| N#Cc1cc(C(=O)Nc2cc(F)c(=O)n(CC(F)F)c2)sc1C(F)(F)Cl [Compound 78d] | 57.5 | > 10000 | 6370 | 377 | – | – |
| O=C(Nc1cc(F)c(=O)n(CC(F)F)c1)c1cc(C#C[C@@H]2CCOC2)c(Cl)s1 [Compound 79c] | – | > 10000 | 1290 | – | 56.8 | 143 |
| O=C(Nc1cc(F)c(=O)n(CC(F)F)c1)c1cc(C#CC2COC2)c(C(F)F)s1 [Compound 80c] | – | > 10000 | 3980 | – | 161 | 494 |
| Cc1cc(C(=O)Nc2cc(F)c(=O)n(CC(F)F)c2)sc1C(F)(F)F [Compound 80d] | 224 | > 10000 | > 10000 | 1140 | – | – |
| O=C(Nc1cc(F)c(=O)n(CC(F)F)c1)c1cc(C#Cc2ccccn2)c(Cl)s1 [Compound 81c] | – | > 10000 | 2010 | – | 79.8 | 198 |
| Cc1sc(C(=O)Nc2cc(F)c(=O)n(CC(F)F)c2)cc1C#N [Compound 81d] | 67 | > 10000 | 2370 | 241 | – | – |
| Cc1cc(NC(=O)c2cc(Cl)c(C(F)(F)F)s2)cn(CC(F)F)c1=O [Compound 82d] | 1360 | > 10000 | 4730 | 8090 | – | – |
| O=C(Nc1cc(F)c(=O)n(CC(F)F)c1)c1cc(C#Cc2cn[nH]c2)c(Cl)s1 [Compound 83c] | – | > 10000 | 3470 | – | 19.4 | 62.9 |
| CC(F)(F)c1sc(C(=O)Nc2cc(F)c(=O)n(CC(F)F)c2)cc1C#N [Compound 83d] | 465 | > 10000 | > 10000 | 2390 | – | – |
| CC(C)(F)c1sc(C(=O)Nc2cc(F)c(=O)n(CC(F)F)c2)cc1C#N [Compound 84d] | 8580 | > 10000 | > 10000 | > 50000 | – | – |
| CC#Cc1cc(C(=O)Nc2cc(F)c(=O)n(CC(F)F)c2)sc1Cl [Compound 85c] | – | > 10000 | 2370 | – | 81.1 | 233 |
| N#Cc1cc(C(=O)Nc2cc(F)c(=O)n(CC3(F)CC3)c2)sc1C(F)(F)F [Compound 85d] | 104 | > 10000 | 4170 | 596 | – | – |
| CNC(=O)c1cccc(C#Cc2cc(C(=O)Nc3cc(F)c(=O)n(CC(F)F)c3)sc2Cl)c1 [Compound 86c] | – | > 10000 | 1730 | – | 17.2 | 45.1 |
| N#Cc1cc(NC(=O)c2cc(Cl)c(C(F)(F)F)s2)cn(CC(F)F)c1=O [Compound 86d] | 101 | 8560 | 3950 | 512 | – | – |
| N#Cc1cc(C(=O)Nc2cc(F)c(=O)n(CC(F)F)c2)sc1C1CC1 [Compound 87d] | 978 | > 10000 | > 10000 | 4990 | – | – |
| N#Cc1cc(C(=O)Nc2cc(O)c(=O)n(CC(F)F)c2)sc1C(F)(F)F [Compound 88d] | 576 | > 10000 | > 10000 | 3970 | – | – |
| O=C(Nc1cc(F)c(=O)n(CC(F)F)c1)c1cc(OC(F)(F)F)c(C(F)(F)F)s1 [Compound 89d] | 187 | > 10000 | 5620 | 2070 | – | – |
| O=C(Nc1cc(F)c(=O)n(CC(F)F)c1)c1cc(C#Cc2cn3c(n2)COCC3)c(Cl)s1 [Compound 90d] | 1390 | > 10000 | > 10000 | 2710 | – | – |
